Test results reported in ChEMBL document CHEMBL1201862, “PubChem BioAssay data set” (2004).
Active and inactive are the calls of the source.

Experiments:
[1] = HEK-293T viability loss after treatment – luminescence, T-cell screen hits, cytotoxicity control for TCR NF-kB inhibitor project, dose response (AID 489026); format: functional, cell-based;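 also: cells exposed to compound about 14 hours before the viability readout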
[2] = cells; format: functional
[3] = THP-1 cell cytotoxicity, dose response, cytotoxicity control for non-replicating M. tuberculosis project (AID 489025); format: functional
[4] = tested on: Streptococcus; test: GAS UMAA2166 growth inhibition – luminescence, BacTiterGlo, counter-screen for streptokinase expression inhibitor project, dose response (AID 1915); format: functional, organism-based;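 also: potency for reduction of bacterial viability or growth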
[5] = tested on: Streptococcus sp. 'group A'; test: Streptococcus pyogenes SK(-)GAS viability under kanamycin – luminescence, BacTiterGlo, confirmation, counter-screen for streptokinase expression inhibitor project, dose response (AID 1900); format: functional, organism-based
[6] = Vero E6 cell cytotoxicity, dose response, cytotoxicity control for non-replicating M. tuberculosis project, secondary assay (AID 492998); format: functional, VeroE6; details: Vero C1008
[7] = target: T1, High affinity choline transporter 1 (Homo sapiens, UniProt Q9GZV3); test: human choline transporter blockers, potency – cell-based, 5-point CRC, membrane potential dye, dose response (AID 504840); format: functional
T1 sequence (Q9GZV3 whole entry): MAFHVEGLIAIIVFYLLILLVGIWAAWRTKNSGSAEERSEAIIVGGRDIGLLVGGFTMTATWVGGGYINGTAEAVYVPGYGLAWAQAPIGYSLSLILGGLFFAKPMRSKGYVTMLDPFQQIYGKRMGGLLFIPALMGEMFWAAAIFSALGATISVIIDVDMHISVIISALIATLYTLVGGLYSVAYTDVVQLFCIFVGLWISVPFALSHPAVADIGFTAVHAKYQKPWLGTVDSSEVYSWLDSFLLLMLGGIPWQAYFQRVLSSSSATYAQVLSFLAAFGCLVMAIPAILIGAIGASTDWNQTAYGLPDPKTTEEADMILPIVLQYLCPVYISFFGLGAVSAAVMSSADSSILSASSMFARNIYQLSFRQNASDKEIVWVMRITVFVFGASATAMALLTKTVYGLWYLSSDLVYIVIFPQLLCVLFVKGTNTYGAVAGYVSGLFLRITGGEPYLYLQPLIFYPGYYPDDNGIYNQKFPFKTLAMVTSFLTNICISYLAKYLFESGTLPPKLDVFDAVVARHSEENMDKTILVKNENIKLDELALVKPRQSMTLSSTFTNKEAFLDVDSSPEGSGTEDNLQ

[8] = tested on: BJ; test: cells; format: functional, cell-based; details: Homo sapiens
[9] = DRD fibroblast viability loss – cell-based, non-viral oncogenic, luminescence, dose response (AID 1934); format: functional; details: Homo sapiens
[10] = tested on: BJ; test: BJ-TERT-LT-ST fibroblast viability loss – cell-based, RAS-independent, luminescence, dose response (AID 1935); format: functional; details: Homo sapiens;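 also: BJ fibroblasts immortalized with TERT plus LT and ST oncogenes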
[11] = tested on: BJ; test: BJ-TERT fibroblast viability loss – cell-based, RAS-independent, luminescence, dose response (AID 1933); format: functional; details: Homo sapiens
[12] = target: Cytochrome P450 3A4 (Homo sapiens, UniProt P08684);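 also: CYP3A4 tested as one member of a cytochrome P450 panel screen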
Sequence of Cytochrome P450 3A4 (P08684 whole entry): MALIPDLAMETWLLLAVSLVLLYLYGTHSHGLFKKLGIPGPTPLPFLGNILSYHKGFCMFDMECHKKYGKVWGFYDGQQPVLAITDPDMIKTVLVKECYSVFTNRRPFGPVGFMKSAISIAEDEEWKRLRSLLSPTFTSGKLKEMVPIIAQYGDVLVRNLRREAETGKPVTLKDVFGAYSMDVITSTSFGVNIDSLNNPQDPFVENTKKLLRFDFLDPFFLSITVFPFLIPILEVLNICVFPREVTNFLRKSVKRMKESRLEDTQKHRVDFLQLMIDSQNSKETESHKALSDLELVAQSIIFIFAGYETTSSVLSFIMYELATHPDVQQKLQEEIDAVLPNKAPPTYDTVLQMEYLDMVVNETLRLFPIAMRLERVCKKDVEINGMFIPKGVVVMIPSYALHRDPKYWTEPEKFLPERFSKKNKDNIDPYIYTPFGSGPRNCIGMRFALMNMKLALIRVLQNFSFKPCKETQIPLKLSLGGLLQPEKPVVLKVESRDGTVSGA

With `COc1ccccc1CNS(=O)(=O)c1ccc(-c2cnc(C3CC3)o2)cc1` the IC50 [1] was > 80 µM (inactive).
For `CC(C)(C)c1ccc(C(=O)Nc2nnc(C3=COCCO3)o2)cc1`, the IC50 [2] was 2.11 µM (active), the CC50 [3] was 34.2 µM (active) and the EC50 [4] was 9.1 µM (active). For the same molecule, the EC50 [5] was 0.429 µM (active) and the CC50 [6] was > 20 µM (active).
For `Cc1cc(C)nc(SCc2cc(=O)c(OC(=O)c3ccco3)co2)n1`, the IC50 [7] was 12.3 µM (active).
In the case of `COc1ccccc1CNS(=O)(=O)c1ccc(-c2cc(C)no2)cc1`, the EC50 [8] is reported as 53.8 µM (inconclusive), the EC50 [9] is reported as 1.34 µM (active) and the IC50 [1] is reported as 79.8 µM (inactive). For the same molecule, the EC50 [10] was 0.83 µM (active) and the EC50 [11] was 1.92 µM (active).
With `Cn1c(S)nnc1CCNC(=O)c1ccccc1Cl` the AC50 [12] was “inconclusive”.
In the case of `COC(=O)c1cc2c(cn1)[nH]c1ccccc12` [BETA-CCM], the AC50 [12] is reported as “inconclusive”.
In the case of `COc1cc2nc(N3CCN(C(=O)c4ccco4)CC3)nc(N)c2cc1OC` [PRAZOSIN], the AC50 [12] is reported as “inconclusive”.
